US4238507A, “Pharmacological compound with immunopotentiating activity and production and uses thereof” (Zaidan Hojin Biseibutsu Kagaku Kenkyu Kai, priority 1979, dated 1980)

Columns and labels:
alkaline phosphatase = settings: literature; cited from earlier work
[1] = system: cellular immunity (cell-mediated immunity); assay: Delayed-Type Hypersensitivity (D.T.H.) footpad swelling, effect on cellular immunity in mice immunized with sheep red blood cells; type: in vivo, ddY mouse; settings: for Degree of swelling: left hind footpad, 24 hours after elicitation
Experimental: In order to evaluate the immunopotentiating properties of the compound (I) of this invention, the effect of the compound (I) on cellular immunity (cell-mediated immunity) was tested according to a known Delayed-Type Hypersensitivity (D.T.H.) technique (see P. H. Lagrange, G. B. Mackaness and T. E. Mille, "J. Exp. Med", 139, 1529-1539 (1974)) using mice immunized with sheep red blood cells as antigen.
Thus, 10^8 sheep red blood cells (SRBC) suspended in 0.05 ml of physiological saline were subcutaneously injected at the time of immunization to the right hind footpad of each dd/.UPSILON. mouse under test (female, 6 weeks old) to establish delayed-type hypersensitivity. Simultaneously with the immunization, a varying dose of the compound (I) was intraperitoneally injected or orally administered into each test mouse. Four days later, 10^8 sheep red blood cells were subcutantaneously injected into the left hind footpad of each test mouse for elicitation of the D.T.H. response. 24 hours after the elicitating injection, the thickness of the left hind footpad was measured to evaluate the degree of the swelling in the footpad. The degree of the swelling serves to estimate the cellular immunity involved. In the Table, the swelling degree is expressed in terms of the values calculated by the equation: [formula]

[2] = acute toxicity (LD50), intraperitoneal injection in mice; settings: mouse, in vivo, ip; intraperitoneally injected into mice
immune response = assay: immunopotentiating activity upon oral administration compared with forphenicine; type: in vivo; settings: relative to forphenicine
[3] = stability compared with forphenicine; type: physicochemical; settings: relative to forphenicine

Row | SMILES | inhibition of alkaline phosphatase (alkaline phosphatase) | Degree of swelling ([1]; i.p. injection, 0.1 μg/mouse) | Degree of swelling ([1]; i.p. injection, 1 μg/mouse) | Degree of swelling ([1]; i.p. injection, 10 μg/mouse) | Degree of swelling ([1]; i.p. injection, 100 μg/mouse) | potentiating effect on establishment of cellular immunity ([1]; intraperitoneal injection or oral administration, wide range of dosages) | Degree of swelling ([1]; oral administration, 0.1 μg/mouse) | Degree of swelling ([1]; oral administration, 1 μg/mouse) | Degree of swelling ([1]; oral administration, 10 μg/mouse) | Degree of swelling ([1]; oral administration, 100 μg/mouse) | LD50 [2] [mg/kg] | activity upon oral administration (immune response) | stability [3]
1 | NC(C(=O)O)c1ccc(C=O)c(O)c1 (stereo not shown) [Forphenicine, forphenicine] | strong inhibitor of alkaline phosphatase | – | – | – | – | – | – | – | – | – | – | – | –
2 | NC(C(=O)O)c1ccc(CO)c(O)c1 (stereo not shown) [compound (I), forphenicinol] | – | 183 | 159 | 148 | 131 | intensive potentiating effect | 139 | 133 | 191 | 166 | > 500 | higher activity than forphenicine | more stable than forphenicine
